Assay results as given in patent publication US20240391871A1, “SUBSTITUTED HYDROXYMETHYL PYRROLIDINES AND MEDICAL USES THEREOF” (ATROGI AB, priority 2021, published 2024).
Structures can show the parent of a compound that is named as a salt.

Columns and labels:
Assay type in all cases: cell-based
L6-myotubes [1] = experiment: Glucose uptake in L6-myotubes in the presence of the β2-antagonist ICI-118,551; settings: compound 1×10^−5 M, ICI-118,551 1×10^−5 M
Description: (§1) L6-myoblasts were grown in Dulbecco's Modified Eagle's Medium (DMEM) containing 1 g/L glucose supplemented with 10% fetal bovine serum, 2 mM L-Glutamine, 50 U/mL penicillin, 50 μg/mL streptomycin and 10 mM HEPES. Cells were plated at 1×10^5 cells per mL in 24-well plates. After reaching 90% confluence the cells were grown in medium containing 2% FBS for 7 days where upon cells differentiated into myotubes.
Differentiated L6-myotubes were serum-starved overnight in medium containing 0.5% fatty-acid free BSA and were incubated with the β2-adrenergic receptor antagonist ICI-118,551 at a final concentration of 1×10^−5 M for 30 min. The cells were stimulated with a compound of the invention, at a final concentration of 1×10^−5 M. After 1 h 40 min the cells were washed twice with warm, glucose free medium or PBS and additional portions of the compound of the invention and the antagonist were added. After 20 min the cells were exposed to 50 nM ^3H-2-deoxyglucose for 10 min before washed with ice cold glucose free medium or PBS three times and lysed with 0.2 M NaOH, 400 μL/well, for 1 h at 60° C. The cell lysate was mixed with 4 mL scintillation buffer (Emulsifier Safe, Perkin Elmer) and the radioactivity was detected in a β-counter (Tri-Carb 4810TR, Perkin Elmer). The activity for each compound is compared to that of isoproterenol.

L6-myotubes [2] = experiment: Glucose uptake (3H-2-deoxyglucose) in differentiated L6-myotubes; settings: compound 1×10^−5 M; for Emax at 10 µM: read-out: Biological example 1: glucose uptake, activity compared to that of isoproterenol
Description: as §1
Differentiated L6-myotubes were serum-starved overnight in medium containing 0.5% fatty-acid free BSA and stimulated with an agonist, with a final concentration of 1×10^−5 M. After 1 h 40 min the cells were washed with warm glucose free medium or PBS twice and another portion of agonist was added to the glucose free medium. After 20 min the cells were exposed to 50 nM ^3H-2-deoxyglucose for 10 min before washed with ice cold glucose free medium or PBS three times and lysed with 0.2 M NaOH, 400 μL/well, for 1 h at 60° C. The cell lysate was mixed with 4 mL scintillation buffer (Emulsifier Safe, Perkin Elmer) and the radioactivity was detected in a β-counter (Tri-Carb 4810TR, Perkin Elmer). The activity for each compound is compared to that of isoproterenol.

[3] = tested on: Intracellular cAMP levels; experiment: Measurement of intracellular cAMP levels in differentiated L6 cells; settings: compound 1×10^−5 M, 15 min; for Emax at 10 µM: Rattus norvegicus, L6, 0.25 h, read-out: Biological example 2: intracellular cAMP levels, activity compared to that of isoproterenol
Description: as §1
Differentiated cells were serum-starved overnight and stimulated with an agonist, final concentration 1×10^−5 M, for 15 min in stimulation buffer (HBSS supplemented with 1% BSA, 5 mM HEPES and 1 mM IBMX, pH 7.4). The medium was aspirated and 100 μL of 95% EtOH was added to each well of the 24-well plate and cells were kept at −20° C. overnight. The EtOH was allowed to evaporate and 500 μL of lysis buffer (1% BSA, 5 mM HEPES and 0.3% Tween-20, pH 7.4) was added to each well. The plate was kept at −80° C. for 30 min and then at −20° C. until the day of detection when the samples were thawed. Intracellular cAMP levels were detected using an alpha screen cAMP kit (6760635D from Perkin Elmer). The activity for each compound is compared to that of isoproterenol.

Structure (SMILES) | Biological example 3: glucose uptake in the presence of the β2-antagonist ICI-118,551, activity compared to that of isoproterenol (L6-myotubes [1]) | Biological example 1: glucose uptake, activity compared to that of isoproterenol (L6-myotubes [2]) | Biological example 2: intracellular cAMP levels, activity compared to that of isoproterenol [3] | Emax at 10 µM (L6-myotubes [2]) [%] | Emax at 10 µM [3] [%]
CO[C@H]1CC[C@H](C[C@@H]2CC[C@H]([C@@H](O)c3cccc(F)c3)N2)CC1.Cl [Example 2, (S)-(3-Fluorophenyl)((2R,5S)-5-(((1r,4S)-4-methoxycyclohexyl) -methyl)pyrrolidin-2-yl)methanol hydrochloride] | − (less than 25%) | +++ (more than 75% of that of isoproterenol) | − (less than 25%) | – | –
CO[C@H]1CC[C@H](C[C@@H]2CC[C@H]([C@H](O)c3cccc(F)c3)N2)CC1.Cl [Example 1, (R)-(3-Fluorophenyl)((2R,5S)-5-(((1r,4S)-4-methoxycyclohexyl)methyl) -pyrrolidin-2-yl)methanol hydrochloride] | − (less than 25%) | +++ (more than 75% of that of isoproterenol) | − (less than 25%) | – | –
CO[C@H]1CC[C@H](C[C@H]2CC[C@H]([C@H](O)c3ccccc3F)N2)CC1.Cl [Example 7, (R)-(2-Fluorophenyl)((2R,5R)-5-(((1r,4S)-4-methoxycyclohexyl)methyl) -pyrrolidin-2-yl)methanol hydrochloride] | − (less than 25%) | – | – | > 75 | 25 to 50
CO[C@H]1CC[C@H](C[C@@H]2CC[C@H]([C@H](O)c3ccccc3F)N2)CC1.Cl [Example 5] | − (less than 25%) | – | – | – | –
CO[C@H]1CC[C@H](C[C@H]2CC[C@H]([C@H](O)c3cccc(F)c3)N2)CC1.Cl [Example 3, (R)-(3-Fluorophenyl)((2R,5R)-5-(((1r,4R)-4-methoxycyclohexyl)-methyl) -pyrrolidin-2-yl)methanol hydrochloride] | − (less than 25%) | +++ (more than 75% of that of isoproterenol) | − (less than 25%) | – | –
CS(=O)(=O)N(Cc1ccccc1)[C@H]1CC[C@H](C[C@@H]2CC[C@H]([C@@H](O)c3cccc(F)c3)N2)CC1 [Example 47, N-Benzyl-N-((1S,4r)-4-(((2S,5R)-5-((S)-(3-fluorophenyl)(hydroxy) -methyl)pyrrolidin-2-yl)methyl)cyclohexyl)methanesulfonamide hydrochloride] | – | – | – | < 25 | < 25
